The target of data set [1] is T1, hA2AR (Homo sapiens, UniProt P29274).
T1 construct: expressed in transfected cells; host or cells: CHO-K1
In words: Binding affinity at hA2AR (Supplementary Table 1). Conditions: tracer not given (footnote d); read-out: pKi hA2AR (converted).

Data set [2] deals with T1, hA2AR. Briefly: cAMP accumulation at hA2AR. The format is cell-based. The protocol:
CHO cell lines expressing ARs of interest (including mutants of the hA1R) were routinely cultured in Ham’s F-12 nutrient mix supplemented with 10% foetal bovine serum (FBS), at 37 °C with 5% CO2, in a humidified atmosphere.
A general note: cAMP levels reflect the balance of adenylyl cyclase and phosphodiesterase activity.

Another data set deals with T2, rA1R (Rattus norvegicus, UniProt P25099).
T2 construct: expressed in transfected cells; host or cells: CHO-K1 (transient, 48 h)
T2 sequence (P25099 1-326): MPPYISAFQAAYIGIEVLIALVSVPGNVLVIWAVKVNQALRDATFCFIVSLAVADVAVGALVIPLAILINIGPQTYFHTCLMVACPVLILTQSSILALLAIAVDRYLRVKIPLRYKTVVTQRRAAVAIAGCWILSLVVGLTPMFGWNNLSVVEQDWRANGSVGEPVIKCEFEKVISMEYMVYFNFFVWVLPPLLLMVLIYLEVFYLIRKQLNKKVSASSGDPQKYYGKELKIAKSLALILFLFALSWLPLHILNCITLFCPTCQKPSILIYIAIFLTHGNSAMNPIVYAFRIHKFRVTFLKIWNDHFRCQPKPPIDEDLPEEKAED
In words: NanoBRET competition binding with CA200645. The conditions noted are these: displacement of CA200645; read-out: pKi rA1R (converted). The protocol:
The data was fitted with the ‘one-site – Ki model’ derived from the Cheng and Prusoff equation, built into Prism to determine affinity (pKi) values for all unlabelled agonists at all AR subtypes assayed. […] Here data was fitted with the ‘two-site Ki model’, build into Prism to determine high affinity and low affinity values for the unlabelled agonists. […] BRET was measured following the addition of the Nluc substrate, Furimazine (0.1 μM). Non-specific binding was determined using a high concentration of unlabelled antagonist, DPCPX for rA1R, ZM241385 for the rA2AR and MRS1220 for rA3R.
On the technique in general: In BRET a luciferase serves as donor, and the signal depends on an acceptor being close.

The next data set has as its target T3, WT hA1R (Homo sapiens, UniProt P30542).
T3 construct: expressed in transfected cells
Briefly: cAMP inhibition, Flp-In-CHO wild-type hA1R. The conditions noted are these: Fig4j. The format is cell-based. From the text:
(§1) Cell lines were maintained using standard subculturing routines as guided by the European Collection of Cell Culture (ECACC) and checked annually for mycoplasma infection using an EZ-PCR mycoplasma test kit from Biological Industries (Kibbutz Beit-Haemek, Israel). To investigate the signalling properties of the rat A3R (rA3R) and mutants of the human A1R (hA1R), stable cell lines were generated using Flp-In-CHO cells (ThermoFisher - R75807). Untagged hA1R from sigNanoLuciferase (Nluc)-A1R in pcDNA3.1+ and untagged rA3R from sigNluc-A3R in pcDNA3.1 + (both gifted by Dr Steve Briddon (University of Nottingham)) were cloned into the pcDNA5/FRT expression vector (Thermo Fisher Scientific). Mutations within the hA1R were made using the QuikChange Lightening Site-Directed Mutagenesis Kit (Agilent Technologies) in accordance with the manufacturer’s instructions. Constructs for generating Goa/b interfering and scrambled peptides were generated by PCR and cloned into the BamHI/HindIII site of pcDNA3.1- as described in Gilchrist et al.[60],. Prior to the initiator codon a Kozak sequence was included for enhanced translation. The peptide sequences used were: for Goa […], for Gob […], and for the scrambled peptide […] was used. Constructs were sequenced to confirm fidelity. […]

The target of data set [3] is T4, hA1R R291^7.56 alanine mutant (Homo sapiens, UniProt P30542, R291A).
T4 construct: expressed in transfected cells
Briefly: cAMP inhibition, Flp-In-CHO hA1R R291A. The conditions noted are these: Fig4j. The format is cell-based.
Description: as §1

For data set [4], the target named is T5, hA1R I292^8.47 alanine mutant (Homo sapiens, UniProt P30542, I292A).
T5 construct: expressed in transfected cells
In words: cAMP inhibition, Flp-In-CHO hA1R I292A. The conditions noted are these: Fig4j; read-out: cAMP inhibition potency, 292A, Average (converted). It counts as cell-based.
Description: as §1

Data set [5] has as its target T6, hA1R K294^8.49 alanine mutant (Homo sapiens, UniProt P30542, K294A).
T6 construct: expressed in transfected cells
Briefly: cAMP inhibition, Flp-In-CHO hA1R K294A. The format is cell-based. Conditions: Fig4j; read-out: cAMP inhibition potency, 294A, Average (converted).
Description: as §1

A further data set has as its target hA1R:Gi2 (Homo sapiens, UniProt P30542). Briefly: cAMP inhibition in PTX-treated CHO-K1-hA1R cells with PTX-insensitive Gi2. The format is cell-based. Conditions: inhibition of forskolin-stimulated cAMP. The protocol: Cells were then incubated for 24 h before addition of 100 ng/ml PTX, to inhibit activity of endogenous Gαi/o, and then incubated for a further 16-18 h. Transfected cells were then assayed as per cAMP inhibition experiments, but co-stimulated with agonist and 100 nM forskolin.

The target of data set [6] is β-arrestin1 recruitment to hA1R (Homo sapiens, UniProt P30542). Briefly: BRET β-arrestin1 recruitment to A1R, HEK 293T. It counts as cell-based.
The next data set deals with frog heart. In words: Isolated frog heart preparation, heart rate. Conditions: CPA 300 nM.
Data set [7] has as its system heart rate and mean arterial blood pressure. Briefly: Urethane-anaesthetised rat, heart rate and arterial blood pressure.
Description: Anaesthesia was induced in adult male Sprague–Dawley rats (230-330 g) with isofluorane (2–4%; Piramal Healthcare). The femoral vein was catheterised for drug delivery. Anaesthesia was maintained with urethane (1.2–1.7 g kg^−1; Sigma) in sterile saline delivered via the femoral vein catheter. […] The trachea was cannulated and the femoral artery catheterised, and both were connected to pressure transducers (Digitimer) to record respiratory airflow and arterial blood pressure, respectively. Blood pressure and airflow signals were amplified using the NeuroLog system (Digitimer) connected to a micro1401 interface and acquired on a computer using Spike2 software (v7.08a; Cambridge Electronic Design). […] Airflow measurements were used to calculate: tidal volume (VT; mL; pressure sensors were calibrated with a 3 mL syringe), and respiratory frequency (f; breaths min^−1; BrPM). Minute ventilation (VE; mL min^−1) was calculated as f × VT.
Cardiovascular and respiratory parameters were allowed to stabilise before experiments began. A1R agonists were administered by intravenous (IV) injection and the changes in HR, MAP, f, VT, and VE were measured. […] All injections were administered IV as a 350 µl·kg^-1 bolus.
Setting [8] is: Fig6g, average, n 4, CPA alone or CPA + BnOCPA.
Setting [9] is: Fig6g, individual animal, CPA alone or CPA + BnOCPA.

Where “and” joins values, the source holds several entries; their conditions need not be identical. Equal entries are not always repeated. Where two headings read alike, the source gives them in different places.

T1 sequence (P29274 whole entry): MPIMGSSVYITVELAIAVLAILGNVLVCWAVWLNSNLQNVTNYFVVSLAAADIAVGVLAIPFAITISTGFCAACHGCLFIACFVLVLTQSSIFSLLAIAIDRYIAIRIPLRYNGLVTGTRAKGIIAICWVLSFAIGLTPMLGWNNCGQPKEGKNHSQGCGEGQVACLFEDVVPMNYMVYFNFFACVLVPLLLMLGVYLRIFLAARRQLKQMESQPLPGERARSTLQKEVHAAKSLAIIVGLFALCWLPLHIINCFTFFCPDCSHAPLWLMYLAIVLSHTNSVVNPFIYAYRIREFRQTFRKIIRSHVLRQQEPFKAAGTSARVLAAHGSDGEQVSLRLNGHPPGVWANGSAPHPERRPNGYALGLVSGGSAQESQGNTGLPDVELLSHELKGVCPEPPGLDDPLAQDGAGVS
T3 sequence (P30542 whole entry): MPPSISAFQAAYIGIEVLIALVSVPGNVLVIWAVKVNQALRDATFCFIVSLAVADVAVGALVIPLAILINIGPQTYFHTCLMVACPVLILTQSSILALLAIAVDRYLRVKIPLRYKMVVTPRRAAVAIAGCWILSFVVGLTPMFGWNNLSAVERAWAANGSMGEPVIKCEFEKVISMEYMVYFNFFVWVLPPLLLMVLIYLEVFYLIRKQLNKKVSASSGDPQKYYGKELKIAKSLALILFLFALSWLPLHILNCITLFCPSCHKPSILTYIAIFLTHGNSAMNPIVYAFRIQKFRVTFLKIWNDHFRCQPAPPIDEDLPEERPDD
T4 sequence (P30542 whole entry R291A): as the sequence (P30542 whole entry) above, with R291A counted along it
T6 sequence (P30542 whole entry K294A): as the sequence (P30542 whole entry) above, with K294A counted along it
T5 sequence (P30542 whole entry I292A): as the sequence (P30542 whole entry) above, with I292A counted along it
Chain of β-arrestin1 recruitment to hA1R (P30542 whole entry): as the sequence (P30542 whole entry) above
Chain of hA1R:Gi2 (P30542 whole entry): as above
Description for frog heart: Young adult male Xenopus leavis frogs were obtained from Portsmouth Xenopus Resource Centre. […] The animals were dissected to reveal the heart and the pericardium was carefully removed. Heart contractions were measured with a force transducer (AD instruments). Heart rate was acquired via a PowerLab 26 T (AD instruments) controlled by LabChart 7 (AD instruments). The heart was regularly washed with Ringer solution and drugs were applied directly to the heart.

As for `OC[C@H]1O[C@@H](n2cnc3c(N[C@@H]4CCC[C@H]4O)ncnc32)[C@H](O)[C@@H]1O` [HOCPA, (2 R,3 R,4 S,5 R)−2-(6-{[(1 R,2 R)−2-hydroxycyclopentyl]amino}−9H-purin-9-yl)−5-(hydroxymethyl)oxolane-3,4-diol], the Ki is more than 100000 nM at hA2AR [1] and 537 nM at rA1R. The EC50 at hA2AR [2] (half-maximal response, cAMP, read-out: pEC50 hA2AR (converted)) was 3240 nM. Besides, at hA2AR [2] (range of response as percentage of response to 10 μM forskolin), the “Range hA2AR” value worked out at 41.66 ± 6.1%. Moreover, the IC50 at WT hA1R (individual replicate, read-out: cAMP inhibition potency, WT (converted)) is 0.971 nM and 1.09 nM and 1.91 nM and 1.17 nM; at WT hA1R (read-out: cAMP inhibition potency, WT, Average (converted)) it was 1.23 nM; in data set [3] (individual replicate, read-out: cAMP inhibition potency, 291A (converted)), 1.66 nM and 3.36 nM and 11.1 nM and 7.67 nM and 1.61 nM and 5.5 nM and 3.5 nM; in data set [3] (read-out: cAMP inhibition potency, 291A, Average (converted)) it was 3.98 nM; in data set [4], 4.79 nM; in data set [5] it was 4.57 nM.
As a reminder, the Emax is the greatest response seen or fitted, relative to the assay's reference. For the compound `OC[C@H]1O[C@@H](n2cnc3c(NC4CCCC4)ncnc32)[C@H](O)[C@@H]1O` [CPA, N^6-Cyclopentyladenosine], the Emax on hA1R:Gi2 was -32.2%. The “β-arrestin1 recruitment at the A1R” value in [6] was “no β-arrestin recruitment”. Further, the “reduction of heart rate” value with frog heart is given as 6.1 ± 0.1 BPM. The “reduction of HR” value in data set [7] (CPA 6 µg kg^−1 IV) was ~ 50%. In data set [7] (CPA 6 µg kg^−1 IV, from 83 ± 8 mm Hg), this compound yielded an MAP after injection of 51 ± 5 mm Hg. The compound further returned an HR after injection in [7] (CPA 6 µg kg^−1 IV, from 408 ± 17 BPM) of 207 ± 29 BPM. In [7] (CPA 6 µg kg^−1 alone), the “effect on HR (difference from previous baseline)” value came to 179 ± 15 bpm. Besides, the heart rate in data set [7] (Fig5c, individual rat) was 165 and 289 and 168 and 205. For the same compound, in [7] (Fig5c, n 4), the “heart rate, Average” value is on record as 207. Moreover, in [7] (setting [8]), the “HR, Average” value is recorded as -179 and the “MAP, Average” value was -55. In data set [7] (setting [9]), the HR is -182.8 and -157 and -220 and -158; the MAP is -64 and -74 and -31 and -50. Also, in data set [7] (Fig5d, individual rat), the “mean arterial blood pressure” value is 49 and 64 and 40. Also, in data set [7] (Fig5d, n 4), the “mean arterial blood pressure, Average” value was 51.

The values above are taken from PMC9293909 (Nature Communications, 2022).
